What is called IC50 is the concentration that inhibits the measured activity by half. Higher therefore signals weaker potency.

In this test the target is T1, MAGL (Homo sapiens, UniProt Q99685).
T1 sequence (Q99685 1-303): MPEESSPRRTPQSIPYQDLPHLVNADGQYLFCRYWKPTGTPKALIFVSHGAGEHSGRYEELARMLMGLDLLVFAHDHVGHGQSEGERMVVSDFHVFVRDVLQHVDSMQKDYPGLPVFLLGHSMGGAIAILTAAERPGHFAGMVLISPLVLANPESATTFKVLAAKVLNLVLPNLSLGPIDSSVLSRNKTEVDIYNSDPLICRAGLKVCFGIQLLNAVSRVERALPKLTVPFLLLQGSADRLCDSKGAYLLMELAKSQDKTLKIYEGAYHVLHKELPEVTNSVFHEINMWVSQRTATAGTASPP
As to the kind of experiment: MAGL inhibition, 2-AG assay (hydrolysis of 2-arachidonoylglycerol, arachidonic acid by mass spectrometry). Conditions: 2-AG assay (footnote [b]). Type of test: biochemical. As to the method: Alternatively, compounds were profiled for MAGL inhibitory activity by determining the enzymatic activity by following the hydrolysis of the natural substrate 2-arachidonoylglycerol (2-AG) resulting in arachidonic acid, which can be followed by mass spectrometry. This assay is hereinafter abbreviated “2-AG assay”.
The 2-AG assay was carried out in 384 well assay plates (PP, Greiner Cat #784201) in a total volume of 20 μL. Compound dilutions were made in 100% DMSO (VWR Chemicals 23500.297) in a polypropylene plate in 3-fold dilution steps to give a final concentration range in the assay from 12.5 μM to […]. 0.25 μL compound dilutions (100% DMSO) were added to 9 μL MAGL in assay buffer (50 mM TRIS (GIBCO, 15567-027), 1 mM EDTA (Fluka, 03690-100 mL), 0.01% (v/v) Tween. After shaking, the plate was incubated for 15 min at RT. To start the reaction, 10 μL 2-arachidonoylglycerol in assay buffer was added. The final concentrations in the assay was […] and 8 μM 2-arachidonoylglyerol. After shaking and 30 min incubation at RT, the reaction was quenched by the addition of 40 μL of ACN containing 4 μM of d8-arachidonic acid. The amount of arachidonic acid was traced by an online SPE system (Agilent Rapidfire) coupled to a triple quadrupole mass spectrometer (Agilent 6460). A C18 SPE cartridge (G9205A) was used in an ACN/water liquid setup. The mass spectrometer was operated in negative electrospray mode following the mass transitions 303.1→259.1 for arachidonic acid and 311.1→267.0 for d8-arachidonic acid. The activity of the compounds was calculated based on the ratio of intensities [arachidonic acid/d8-arachidonic acid].

In turn, `O=C1CO[C@H]2CCN(C(=O)N3CCC(C(c4ccc(F)cc4)c4ccc(OCCF)cc4)CC3)C[C@H]2N1` (single isomer, unassigned) [Example 109, (4aR,8aS)-6-(4-((S or R)-(4-(2-Fluoroethoxy)phenyl)(4-fluorophenyl)methyl)piperidine-1-carbonyl)hexahydro-2H-pyrido[4,3-b][1,4]oxazin-3(4H)-one] displayed an IC50 of 0.4 nM. On to `CC(OC1CN(C(=O)N2CC[C@@H]3OCC(=O)N[C@@H]3C2)C1)c1ccc(C(F)(F)F)cc1` (single isomer, unassigned) [Example 114, (4aR,8aS)-6-(3-(1-(R or S)-(4-(Trifluoromethyl)phenyl)ethoxy)azetidine-1-carbonyl)hexahydro-2H-pyrido[4,3-b][1,4]oxazin-3(4H)-one], for which it took 49 nM to reach half-maximal inhibition (IC50). `CC(OC1CN(C(=O)N2CC[C@@H]3OCC(=O)N[C@@H]3C2)C1)c1ccc(C(F)(F)F)cc1` (single isomer, unassigned) [Example 115, (4aR,8aS)-6-(3-(1-(S or R)-4-(Trifluoromethyl)phenyl)ethoxy)azetidine-1-carbonyl)hexahydro-2H-pyrido[4,3-b][1,4]oxazin-3(4H)-one] yielded a 50% inhibitory concentration (IC50) of 79 nM.

As for `CC(OC1CN(C(=O)N2CC[C@@H]3OCC(=O)N[C@@H]3C2)C1)c1ccc(F)cc1Cl` (single isomer, unassigned) [Example 116, (4aR,8aS)-6-[3-(S or R)-]1-(2-Chloro-4-fluoro-phenyl)ethoxy]azetidine-1-carbonyl]-4,4a,5,7,8,8a-hexahydropyrido[4,3-b][1,4]oxazin-3-one], the concentration for half-maximal inhibition (IC50) came to 92 nM. Take `CC(OC1CN(C(=O)N2CC[C@@H]3OCC(=O)N[C@@H]3C2)C1)c1ccc(F)cc1Cl` (single isomer, unassigned) [Example 117, (4aR,8aS)-6-[3-(R or S)-[1-(2-Chloro-4-fluoro-phenyl)ethoxy]azetidine-1-carbonyl]-4,4a,5,7,8,8a-hexahydropyrido[4,3-b][1,4]oxazin-3-one]: it took 30 nM to reach half-maximal inhibition (IC50). In the case of `COc1ccc(C(c2ccccn2)C2CCN(C(=O)N3CC[C@@H]4OCC(=O)N[C@@H]4C3)CC2)cc1OC` (single isomer, unassigned) [Example 118, (4aR,8aS)-6-[4-[(R or S)-(3,4-dimethoxyphenyl)-(2-pyridyl)methyl]piperidine-1-carbonyl]-4,4a,5,7,8,8a-hexahydropyrido[4,3-b][1,4]oxazin-3-one] it was 25 nM; in that of `COc1ccc(C(c2ccccn2)C2CCN(C(=O)N3CC[C@@H]4OCC(=O)N[C@@H]4C3)CC2)cc1OC` (single isomer, unassigned) [Example 119, (4aR,8aS)-6-[4-[(S or R)-(3,4-dimethoxyphenyl)-(2-pyridyl)methyl]piperidine-1-carbonyl]-4,4a,5,7,8,8a-hexahydropyrido[4,3-b][1,4]oxazin-3-one], 17 nM; in that of `COc1ccc(C(c2cccnc2)C2CCN(C(=O)N3CC[C@@H]4OCC(=O)N[C@@H]4C3)CC2)cc1OC` (single isomer, unassigned) [Example 135, (4aR,8aS)-6-[4-[(R or S)-(3,4-Dimethoxyphenyl)-(3-pyridyl)methyl]piperidine-1-carbonyl]-4,4a,5,7,8,8a-hexahydropyrido[4,3-b][1,4]oxazin-3-one], 7 nM. `COc1ccc(C(c2cccnc2)C2CCN(C(=O)N3CC[C@@H]4OCC(=O)N[C@@H]4C3)CC2)cc1OC` (single isomer, unassigned) [Example 136, (4aR,8aS)-6-[4-[(S or R)-(3,4-dimethoxyphenyl)-(3-pyridyl)methyl]piperidine-1-carbonyl]-4,4a,5,7,8,8a-hexahydropyrido[4,3-b][1,4]oxazin-3-one]: inhibition was half-maximal at 14 nM (IC50). `COc1ccc(C(c2ccncc2)C2CCN(C(=O)N3CC[C@@H]4OCC(=O)N[C@@H]4C3)CC2)cc1OC` (single isomer, unassigned) [Example 149, (4aR,8aS)-6-[4-[(R or S)-(3,4-Dimethoxyphenyl)-(4-pyridyl)methyl]piperidine-1-carbonyl]-4,4a,5,7,8,8a-hexahydropyrido[4,3-b][1,4]oxazin-3-one] displayed an IC50 of 51 nM. Take `COc1ccc(C(c2ccncc2)C2CCN(C(=O)N3CC[C@@H]4OCC(=O)N[C@@H]4C3)CC2)cc1OC` (single isomer, unassigned) [Example 150, (4aR,8aS)-6-[4-[(S or R)-(3,4-Dimethoxyphenyl)-(4-pyridyl)methyl]piperidine-1-carbonyl]-4,4a,5,7,8,8a-hexahydropyrido[4,3-b][1,4]oxazin-3-one]: the IC50 worked out at 8 nM. In the case of `CC(OC1CN(c2ccc(C3CN(C(=O)N4CC[C@@H]5OCC(=O)N[C@@H]5C4)C3)cc2)C1)C(F)(F)F` (single isomer, unassigned) [Example 160, (4aR,8aS)-6-[3-[4-[3-[(1S or 1R)-2,2,2-Trifluoro-1-methyl-ethoxy]azetidin-1-yl]phenyl]azetidine-1-carbonyl]-4,4a,5,7,8,8a-hexahydropyrido[4,3-b][1,4]oxazin-3-one] it was 1 nM. With `CC(OC1CN(c2ccc(C3CN(C(=O)N4CC[C@@H]5OCC(=O)N[C@@H]5C4)C3)cc2)C1)C(F)(F)F` (single isomer, unassigned) [Example 161, (4aR,8aS)-6-[3-[4-[3-[(1R or 1S)-2,2,2-Trifluoro-1-methyl-ethoxy]azetidin-1-yl]phenyl]azetidine-1-carbonyl]-4,4a,5,7,8,8a-hexahydropyrido[4,3-b][1,4]oxazin-3-one], the IC50 was found to be 4 nM. With `CS(=O)(=O)c1cccc(C(c2cccnc2)C2CCN(C(=O)N3CC[C@@H]4OCC(=O)N[C@@H]4C3)CC2)c1` (single isomer, unassigned) [Example 175, (4aR,8aS)-6-[4-[(R or S)-(3-methylsulfonylphenyl)-(3-pyridyl)methyl]piperidine-1-carbonyl]-4,4a,5,7,8,8a-hexahydropyrido[4,3-b][1,4]oxazin-3-one], the IC50 was found to be 115 nM. Compared with the last molecule, the IC50 is about 29-fold higher. `CS(=O)(=O)c1cccc(C(c2cccnc2)C2CCN(C(=O)N3CC[C@@H]4OCC(=O)N[C@@H]4C3)CC2)c1` (single isomer, unassigned) [Example 176, (4aR,8aS)-6-[4-[(R or S)-(3-methylsulfonylphenyl)-(3-pyridyl)methyl]piperidine-1-carbonyl]-4,4a,5,7,8,8a-hexahydropyrido[4,3-b][1,4]oxazin-3-one]: the IC50 worked out at 170 nM. For `CS(=O)(=O)c1cccc(C(c2ccncc2)C2CCN(C(=O)N3CC[C@@H]4OCC(=O)N[C@@H]4C3)CC2)c1` (single isomer, unassigned) [Example 177, (4aR,8aS)-6-[4-[(R or S)-(3-methylsulfonylphenyl)-(4-pyridyl)methyl]piperidine-1-carbonyl]-4,4a,5,7,8,8a-hexahydropyrido[4,3-b][1,4]oxazin-3-one], the IC50 turned out to be 428 nM. In the case of `CS(=O)(=O)c1cccc(C(c2ccncc2)C2CCN(C(=O)N3CC[C@@H]4OCC(=O)N[C@@H]4C3)CC2)c1` (single isomer, unassigned) [Example 178, (4aR,8aS)-6-[4-[(S or R)-(3-methylsulfonylphenyl)-(4-pyridyl)methyl]piperidine-1-carbonyl]-4,4a,5,7,8,8a-hexahydropyrido[4,3-b][1,4]oxazin-3-one] it was 131 nM; in that of `CS(=O)(=O)c1cccc(C(c2ccccn2)C2CCN(C(=O)N3CC[C@@H]4OCC(=O)N[C@@H]4C3)CC2)c1` (single isomer, unassigned) [Example 189, (4aR,8aS)-6-[4-[(R or S)-(3-methylsulfonylphenyl)-(2-pyridyl)methyl]piperidine-1-carbonyl]-4,4a,5,7,8,8a-hexahydropyrido[4,3-b][1,4]oxazin-3-one], 68 nM.

With `CS(=O)(=O)c1cccc(C(c2ccccn2)C2CCN(C(=O)N3CC[C@@H]4OCC(=O)N[C@@H]4C3)CC2)c1` (single isomer, unassigned) [Example 190, (4aR,8aS)-6-[4-[(S or R)-(3-methylsulfonylphenyl)-(2-pyridyl)methyl]piperidine-1-carbonyl]-4,4a,5,7,8,8a-hexahydropyrido[4,3-b][1,4]oxazin-3-one], the IC50 was 261 nM. In the case of `O=C1CO[C@H]2CCN(C(=O)N3CC(c4ccc(N5CCCC5C(F)(F)F)cc4)C3)C[C@H]2N1` (single isomer, unassigned) [Example 194] it was 0.1 nM; in that of `O=C1CO[C@H]2CCN(C(=O)N3CC(c4ccc(N5CCCC5C(F)(F)F)cc4)C3)C[C@H]2N1` (single isomer, unassigned) [Example 195], 0.4 nM.

(Values after US20230117324A1, “OXAZINE MONOACYLGLYCEROL LIPASE (MAGL) INHIBITORS” (Hoffmann-La Roche Inc., priority 2018, published 2023).)
